Measured values published in patent publication US20240158446A1, “CYCLIC COMPOUND HAVING SELECTIVE INHIBITORY ACTION ON KRAS OVER HRAS AND NRAS” (CHUGAI SEIYAKU KABUSHIKI KAISHA, priority 2021, published 2024).
Like-named read-outs stand apart in the source and are kept apart here. *1 amine or outer side, *2 acyl side, *3 side chain or, on linkers, in order; H or OH if unused. Where a SMILES comes first, the peptide text is derived from it. Bridges are numbered along the chain shown (N, C = ends). [ ]: non-standard residue; d: D form. The star is where a group is joined. hPhe(3-Cl-4-CF3) = N[C@@H](CCc1ccc(C(F)(F)F)c(Cl)c1)C(=O)O; NPrPhe(4-CF3) = CCCN[C@@H](Cc1ccc(C(F)(F)F)cc1)C(=O)O; X41 = Cc1ccc(C[C@@H](C(=O)[*:2])N(CC2CCCCC2)[*:1])cc1; Abu(4,4,4-F3) = N[C@@H](CC(F)(F)F)C(=O)O; NMeGly(cPent) = CN[C@H](C(=O)O)C1CCCC1; NEtPhe = CCN[C@@H](Cc1ccccc1)C(=O)O; Gly(cBu) = N[C@H](C(=O)O)C1CCC1; NMeD = CN[C@@H](CC(=O)O)C(=O)O; NMeL = CN[C@@H](CC(C)C)C(=O)O; Morpholide = C1CN(*)CCO1; Ac5c = NC1(C(=O)O)CCCC1; Aze = O=C(O)[C@@H]1CCN1; Ac4c = NC1(C(=O)O)CCC1; NEtG = CCNCC(=O)O; Sar = CNCC(=O)O

Tests used:
[1] = biological target: GDP-bound HRAS wild-type protein (Homo sapiens, UniProt P01112); assay: Binding to HRAS by surface plasmon resonance (SPR), Single Cycle Kinetics; conditions: for HRAS/KRAS (ratio of KD value for HRAS to KD value for KRAS) / HRAS/KRAS (ratio of KD value with respect to HRAS to KD value with respect to KRAS): SPR, GDP-bound HRAS wild-type protein vs GDP-bound KRAS wild-type protein
[2] = biological target: GDP-bound NRAS wild-type protein (Homo sapiens, UniProt P01111); assay: Binding to NRAS by surface plasmon resonance (SPR), Single Cycle Kinetics; conditions: for NRAS/KRAS (ratio of KD value for NRAS to KD value for KRAS) / NRAS/KRAS (ratio of KD value with respect to NRAS to KD value with respect to KRAS): SPR, GDP-bound NRAS wild-type protein vs GDP-bound KRAS wild-type protein
[3] = biological target: GDP-bound KRAS wild-type protein (Homo sapiens, UniProt P01116); assay: Binding to KRAS by surface plasmon resonance (SPR), Single Cycle Kinetics; conditions: GDP-bound KRAS wild-type protein, read-out: KRAS KD
[4] = SPR Single Cycle Kinetics, 1:1 binding model

Chain of GDP-bound KRAS wild-type protein (P01116 whole entry): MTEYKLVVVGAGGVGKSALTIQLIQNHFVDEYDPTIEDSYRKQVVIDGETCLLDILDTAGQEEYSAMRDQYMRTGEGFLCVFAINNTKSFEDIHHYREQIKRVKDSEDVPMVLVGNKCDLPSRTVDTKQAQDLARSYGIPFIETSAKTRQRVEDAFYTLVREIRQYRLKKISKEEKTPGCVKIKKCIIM
Chain of GDP-bound HRAS wild-type protein (P01112 whole entry): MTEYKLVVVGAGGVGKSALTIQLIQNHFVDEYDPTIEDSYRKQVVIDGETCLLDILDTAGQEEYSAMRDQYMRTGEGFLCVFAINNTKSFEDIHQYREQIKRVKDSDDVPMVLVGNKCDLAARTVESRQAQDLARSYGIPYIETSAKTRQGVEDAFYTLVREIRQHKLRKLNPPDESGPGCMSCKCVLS
Chain of GDP-bound NRAS wild-type protein (P01111 whole entry): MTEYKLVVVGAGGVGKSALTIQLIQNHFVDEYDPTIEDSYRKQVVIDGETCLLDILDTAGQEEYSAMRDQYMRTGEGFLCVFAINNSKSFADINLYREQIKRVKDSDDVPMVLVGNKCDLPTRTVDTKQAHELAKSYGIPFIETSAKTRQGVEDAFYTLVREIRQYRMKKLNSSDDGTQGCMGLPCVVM

Compound | HRAS/KRAS (ratio of KD value for HRAS to KD value for KRAS) [1] | NRAS/KRAS (ratio of KD value for NRAS to KD value for KRAS) [2] | Kd ([3]; SPR, Single Cycle Kinetics) | HRAS/KRAS (ratio of KD value with respect to HRAS to KD value with respect to KRAS) [1] | NRAS/KRAS (ratio of KD value with respect to NRAS to KD value with respect to KRAS) [2] | Kd [3, 4] | HRAS/KRAS (ratio of KD value with respect to GDP-bound HRAS wild-type protein to KD value with respect to KRAS) ([1]; SPR KD ratio HRAS/KRAS, class symbols) | NRAS/KRAS (ratio of KD value with respect to GDP-bound NRAS wild-type protein to KD value with respect to KRAS) ([2]; SPR KD ratio NRAS/KRAS, class symbols)
CCC[C@H]1C(=O)N[C@@H]([C@@H](C)CC)C(=O)N(C2CC2)CC(=O)N(C)[C@H]2C/C=C\CCN(C2=O)[C@@H](Cc2ccc(C(F)(F)F)cc2)C(=O)N(C)CC(=O)N[C@@H](CCc2ccc(C(F)(F)F)c(OC)c2)C(=O)N2C[C@H](OCC)C[C@H]2C(=O)N(C)C2(CCC2)C(=O)N(C)[C@@H](C2CCCC2)C(=O)N(C)[C@H](C(=O)N(C)C)CC(=O)N1C [PP2316, (2S,8S,12R,14S,20S,23S,27S,30S,36S,38Z)-20-cyclopentyl-32-cyclopropyl-12-ethoxy-8-[2-[3-methoxy-4-(trifluoromethyl)phenyl]ethyl]-N,N,4,16,19,22,26,35-octamethyl-30-[(1S)-1-methylpropyl]-3,6,9,15,18,21,25,28,31,34,42-undecaoxo-27-propyl-2-[[4-(trifluoromethyl)phenyl]methyl]spiro[1,4,7,10,16,19,22,26,29,32,35-undecazatricyclo[34.5.1.0^10,14]dotetracont-38-ene-17,1′-cyclobutane]-23-carboxamide] | A (a compound having 10 or more and less than 20 is denoted as A) | A (a compound having 10 or more and less than 20 is denoted as A) | 0.12 nM |  |  |  |  | 
CC[C@H](C)[C@@H]1NC(=O)[C@H](CC(C)C)N(C)C(=O)C[C@@H](C(=O)N2CCOCC2)N(C)C(=O)[C@H](C2CCCC2)N(C)C(=O)C2(CCCC2)NC(=O)[C@H](C)N(CC)C(=O)[C@H](CCc2cc(F)c(C(F)(F)F)c(F)c2)NC(=O)CN(C)C(=O)[C@H](Cc2ccc(C(F)(F)F)cc2)N2CCCC[C@@H](C2=O)N(C)C(=O)CN(C)C1=O [PP0589] |  |  |  | B (a compound having 3 or more and less than 10 is denoted as B) | B (a compound having 3 or more and less than 10 is denoted as B) | 0.36 nM |  | 
CCO[C@@H]1C[C@H]2C(=O)NC3(CCC3)C(=O)N(C)[C@@H](C3CCCC3)C(=O)N(C)[C@H](C(=O)N(C)C)CC(=O)N(C)[C@@H](CC)C(=O)N[C@@H]([C@@H](C)CC)C(=O)N(C)CC(=O)N(C)[C@H]3C[C@@H](C)CCN(C3=O)[C@@H](Cc3ccc(C(F)(F)F)cc3)C(=O)N(C)CC(=O)N[C@@H](CCc3cc(F)c(C(F)(F)F)c(F)c3)C(=O)N2C1 [PP1020] | B (a compound having 3 or more and less than 10 is denoted as B) | C (A compound having a KD ratio of 0.1 or more and less than 3 is denoted as C) | 0.022 nM |  |  |  |  | 
CCO[C@@H]1C[C@H]2C(=O)NC3(CCC3)C(=O)N(C)[C@@H](C3CCCC3)C(=O)N(C)[C@H](C(=O)N3CCOCC3)CC(=O)N(C)[C@@H](CCOC)C(=O)N[C@@H]([C@@H](C)CC)C(=O)N(C)CC(=O)N(C)[C@H]3CCCCCN(C3=O)[C@@H](Cc3ccc(C(F)(F)F)cc3)C(=O)N(C)CC(=O)N[C@@H](CCc3cc(F)c(C(F)(F)F)c(F)c3)C(=O)N2C1 [PP0690] |  |  |  | B (a compound having 3 or more and less than 10 is denoted as B) | B (a compound having 3 or more and less than 10 is denoted as B) | 0.46 nM |  | 
CCO[C@@H]1C[C@H]2C(=O)NC3(CCC3)C(=O)N(C)[C@@H](C3CCCC3)C(=O)N(C)[C@H](C(=O)N(C)C)CC(=O)N(C)[C@@H](Cc3cccc(F)c3)C(=O)N[C@@H]([C@@H](C)CC)C(=O)N(C)CC(=O)N(C)[C@H]3CCCCCN(C3=O)[C@@H](Cc3ccc(C(F)(F)F)cc3)C(=O)N(C)CC(=O)N[C@@H](CCc3cc(F)c(C(F)(F)F)c(F)c3)C(=O)N2C1 [PP0935] | B (a compound having 3 or more and less than 10 is denoted as B) | B (a compound having 3 or more and less than 10 is denoted as B) | 0.43 nM |  |  |  |  | 
CCCN1C(=O)CN(C)C(=O)CNC(=O)[C@H]([C@@H](C)CC)NC(=O)[C@H](CC(C)C)N(C)C(=O)C[C@@H](C(=O)N2CCOCC2)NC(=O)[C@H](C2CCCC2)N(C)C(=O)C2(CCC2)NC(=O)[C@@H]2CCCN2C(=O)[C@H](CCc2ccc(C(F)(F)F)c(Cl)c2)NC(=O)CN(C)C(=O)[C@@H]1Cc1ccc(C(F)(F)F)cc1 [PP0326] ([NMeL]IG[Sar][NPrPhe(4-CF3)][Sar][hPhe(3-Cl-4-CF3)]P[Ac4c][NMeGly(cPent)]D-Morpholide; lactam N-11) | B (a compound having 3 or more and less than 10 is denoted as B) | B (a compound having 3 or more and less than 10 is denoted as B) |  |  |  | 1.5 nM |  | 
CCO[C@@H]1C[C@H]2C(=O)NC3(CCC(F)(F)CC3)C(=O)N(C)[C@@H](C3CCCC3)C(=O)N(C)[C@H](C(=O)N(C)C)CC(=O)N(C)[C@@H](C)C(=O)N[C@@H]([C@@H](C)CC)C(=O)N(C)CC(=O)N(C)[C@H]3CCCCCN(C3=O)[C@@H](Cc3ccc(C(F)(F)F)cc3)C(=O)N(C)CC(=O)N[C@@H](CCc3cc(F)c(C(F)(F)F)c(F)c3)C(=O)N2C1 [PP0725] |  |  |  | B (a compound having 3 or more and less than 10 is denoted as B) | B (a compound having 3 or more and less than 10 is denoted as B) | 5 nM |  | 
CCCN1C(=O)CN(C)C(=O)CN(CC)C(=O)[C@H](CC(F)(F)F)NC(=O)[C@H](CC(C)C)N(C)C(=O)C[C@@H](C(=O)N2CCOCC2)N(C)C(=O)[C@H](C2CCCC2)N(C)C(=O)C2(CCCC2)NC(=O)[C@@H]2CCCN2C(=O)[C@H](CCc2ccc(C(F)(F)F)c(Cl)c2)NC(=O)CN(C)C(=O)[C@@H]1Cc1ccc(C(F)(F)F)cc1 [PP0291] ([NMeL][Abu(4,4,4-F3)][NEtG][Sar][NPrPhe(4-CF3)][Sar][hPhe(3-Cl-4-CF3)]P[Ac5c][NMeGly(cPent)][NMeD]-Morpholide; lactam N-11) | B (a compound having 3 or more and less than 10 is denoted as B) | B (a compound having 3 or more and less than 10 is denoted as B) |  |  |  | 2.2 nM |  | 
CC[C@H](C)[C@@H]1NC(=O)[C@H](CC)N(C)C(=O)C[C@@H](C(=O)N(C)C)N(C)C(=O)[C@H](C2CCCC2)N(C)C(=O)C2(CCC2)NC(=O)[C@@H]2CCCCN2C(=O)[C@H](CCc2cc(F)c(C(F)(F)F)c(F)c2)NC(=O)CN(C)C(=O)[C@H](Cc2ccc(C(F)(F)F)cc2)N2CCCC[C@@H](C2=O)N(C)C(=O)CN(C)C1=O [PP0658] |  |  |  | B (a compound having 3 or more and less than 10 is denoted as B) | C (A compound having a KD ratio of 0.1 or more and less than 3 is denoted as C) | 0.034 nM |  | 
CC[C@H](C)[C@@H]1NC(=O)[C@H](CC(C)C)N(C)C(=O)C[C@@H](C(=O)N2CCOCC2)N(C)C(=O)[C@H](C2CCCC2)N(C)C(=O)C2(CCCC2)NC(=O)[C@@H]2CCCN2C(=O)[C@H](CCc2ccc(C(F)(F)F)c(Cl)c2)NC(=O)CN(C)C(=O)[C@H](Cc2ccccc2)N(CC)C(=O)CN(C)C(=O)CN(C)C1=O [PP0210] ([NMeL]I[Sar][Sar][NEtPhe][Sar][hPhe(3-Cl-4-CF3)]P[Ac5c][NMeGly(cPent)][NMeD]-Morpholide; lactam N-11) | C (A compound having a KD ratio of 0.1 or more and less than 3 is denoted as C) | C (A compound having a KD ratio of 0.1 or more and less than 3 is denoted as C) |  |  |  | 0.52 nM |  | 
CCC[C@H]1C(=O)N[C@@H]([C@@H](C)CC)C(=O)N(C)CC(=O)N(C)[C@H]2C/C=C\CCN(C2=O)[C@@H](Cc2ccc(C)cc2)C(=O)N(C)CC(=O)N[C@@H](CCc2ccc3c(C)cn(C)c3c2)C(=O)N2C[C@H](OCC)C[C@H]2C(=O)NC2(CC(C)(C)C2)C(=O)N(C)[C@@H](C2CCCC2)C(=O)N(C)[C@H](C(=O)N(C)C)CC(=O)N1C [PP2899] |  |  |  |  |  | 0.85 nM | B (a compound having 3 or more and less than 10 is denoted as B) | A (a compound having 10 or more and less than 20 is denoted as A)
CC[C@H](C)[C@@H]1NC(=O)[C@H](CC(C)C)N(C)C(=O)C[C@@H](C(=O)N2CCOCC2)N(C)C(=O)[C@H](C2CCCC2)N(C)C(=O)C2(CCCC2)NC(=O)[C@@H]2CCCN2C(=O)[C@H](CCc2ccc(C(F)(F)F)c(Cl)c2)NC(=O)CN(C)C(=O)[C@H](Cc2ccc(C)cc2)N(CC2CCCCC2)C(=O)CN(C)C(=O)CN(C)C1=O [PP0097] ([NMeL]I[Sar][Sar][X41][Sar][hPhe(3-Cl-4-CF3)]P[Ac5c][NMeGly(cPent)][NMeD]-Morpholide; lactam N-11) | C (A compound having a KD ratio of 0.1 or more and less than 3 is denoted as C) | C (A compound having a KD ratio of 0.1 or more and less than 3 is denoted as C) |  |  |  | 9.3 nM |  | 
CCCN1C(=O)CN(C)C(=O)[C@@H]2CCN2C(=O)[C@H](C2CCC2)NC(=O)[C@H](CC(C)C)N(C)C(=O)C[C@@H](C(=O)N2CCOCC2)N(C)C(=O)[C@H](C2CCCC2)N(C)C(=O)C2(CCCC2)NC(=O)[C@@H]2CCCN2C(=O)[C@H](CCc2ccc(C(F)(F)F)c(Cl)c2)NC(=O)CN(C)C(=O)[C@@H]1Cc1ccc(C(F)(F)F)cc1 [PP0305] ([NMeL][Gly(cBu)][Aze][Sar][NPrPhe(4-CF3)][Sar][hPhe(3-Cl-4-CF3)]P[Ac5c][NMeGly(cPent)][NMeD]-Morpholide; lactam N-11) | C (A compound having a KD ratio of 0.1 or more and less than 3 is denoted as C) | B (a compound having 3 or more and less than 10 is denoted as B) |  |  |  | 0.96 nM |  | 
